Measurements reported in ChEMBL document CHEMBL4152244, “Discovery of new erbB4 inhibitors: Repositioning an orphan chemical library by inverse virtual screening” (Eur J Med Chem, 2018).
The source made the active and inactive calls. The calls are words filed in the database; no cut-off is given here.

What was measured:
[1] = molecular target: T1, Receptor tyrosine-protein kinase erbB-4 (Homo sapiens, UniProt Q15303); experiment: Inhibition of recombinant human N-terminal GST-His6-fused erbB4 expressed in Sf9 insect cells at 10 uM using poly (Glu, Tyr) 4:1 as substrate after 60 mins in presence of [gamma-33P]-ATP by microplate scintillation counting method relative to control
T1 sequence (Q15303 whole entry, the tested form may be a part): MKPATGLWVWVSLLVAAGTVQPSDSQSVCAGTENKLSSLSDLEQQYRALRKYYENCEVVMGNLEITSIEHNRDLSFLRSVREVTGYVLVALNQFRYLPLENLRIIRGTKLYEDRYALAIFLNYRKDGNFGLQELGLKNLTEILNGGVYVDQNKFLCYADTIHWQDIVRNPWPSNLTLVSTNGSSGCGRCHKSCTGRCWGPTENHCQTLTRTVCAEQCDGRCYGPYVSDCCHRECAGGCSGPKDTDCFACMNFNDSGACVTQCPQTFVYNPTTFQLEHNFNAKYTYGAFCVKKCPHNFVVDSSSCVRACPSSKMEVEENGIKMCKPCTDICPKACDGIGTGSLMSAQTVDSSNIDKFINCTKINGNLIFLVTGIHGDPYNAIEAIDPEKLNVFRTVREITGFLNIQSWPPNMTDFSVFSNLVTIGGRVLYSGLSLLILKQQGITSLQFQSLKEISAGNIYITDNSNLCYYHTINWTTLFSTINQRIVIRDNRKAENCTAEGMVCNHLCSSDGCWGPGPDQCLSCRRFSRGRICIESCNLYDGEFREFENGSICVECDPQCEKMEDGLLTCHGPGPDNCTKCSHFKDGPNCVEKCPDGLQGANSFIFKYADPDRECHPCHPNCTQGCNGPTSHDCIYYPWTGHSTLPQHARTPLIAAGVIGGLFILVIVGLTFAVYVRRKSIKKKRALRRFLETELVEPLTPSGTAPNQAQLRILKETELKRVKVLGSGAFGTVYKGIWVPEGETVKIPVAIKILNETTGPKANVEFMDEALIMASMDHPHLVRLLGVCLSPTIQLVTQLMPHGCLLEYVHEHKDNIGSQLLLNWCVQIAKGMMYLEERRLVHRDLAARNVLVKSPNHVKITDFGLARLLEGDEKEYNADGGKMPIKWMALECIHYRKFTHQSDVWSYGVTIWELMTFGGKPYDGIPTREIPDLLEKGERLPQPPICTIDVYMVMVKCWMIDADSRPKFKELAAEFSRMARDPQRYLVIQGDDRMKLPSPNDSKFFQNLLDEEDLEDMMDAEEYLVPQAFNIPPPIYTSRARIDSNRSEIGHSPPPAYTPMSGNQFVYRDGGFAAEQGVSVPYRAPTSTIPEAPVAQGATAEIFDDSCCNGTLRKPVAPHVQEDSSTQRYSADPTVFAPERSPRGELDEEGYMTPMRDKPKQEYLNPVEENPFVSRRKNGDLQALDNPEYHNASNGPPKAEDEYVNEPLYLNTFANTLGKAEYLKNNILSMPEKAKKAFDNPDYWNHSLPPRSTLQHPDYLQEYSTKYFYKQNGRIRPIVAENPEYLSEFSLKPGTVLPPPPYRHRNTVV

[2] = molecular target: T2, 3-phosphoinositide-dependent protein kinase 1 (Homo sapiens) (UniProt O15530); experiment: Inhibition of recombinant human N-terminal His6-fused pdk1 expressed in Sf9 insect cells at 10 uM using tetra (LRRWSLG) as substrate after 60 mins in presence of [gamma-33P]-ATP by microplate scintillation counting method relative to control
T2 sequence (whole entry): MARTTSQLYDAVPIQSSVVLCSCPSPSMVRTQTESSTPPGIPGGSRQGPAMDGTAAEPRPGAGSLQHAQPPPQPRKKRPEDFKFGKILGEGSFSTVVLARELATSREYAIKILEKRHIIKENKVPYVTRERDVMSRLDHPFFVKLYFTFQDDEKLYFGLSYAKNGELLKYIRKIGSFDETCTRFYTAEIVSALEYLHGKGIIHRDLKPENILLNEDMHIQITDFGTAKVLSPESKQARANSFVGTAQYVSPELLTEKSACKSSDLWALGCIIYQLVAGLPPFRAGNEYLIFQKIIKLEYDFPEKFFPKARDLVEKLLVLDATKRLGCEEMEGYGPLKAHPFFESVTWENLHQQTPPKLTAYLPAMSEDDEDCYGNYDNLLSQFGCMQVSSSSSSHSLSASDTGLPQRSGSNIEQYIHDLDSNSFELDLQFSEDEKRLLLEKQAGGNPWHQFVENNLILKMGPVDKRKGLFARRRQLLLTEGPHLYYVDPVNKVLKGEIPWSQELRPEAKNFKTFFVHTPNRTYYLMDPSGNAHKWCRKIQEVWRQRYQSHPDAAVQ

[3] = molecular target: T3, Ephrin type-A receptor 3 (Homo sapiens) (UniProt P29320); experiment: Inhibition of recombinant human N-terminal GST-His6-fused ephA3 expressed in Sf9 insect cells at 10 uM using poly (Glu, Tyr) 4:1 as substrate after 60 mins in presence of [gamma-33P]-ATP by microplate scintillation counting method relative to control
T3 sequence (whole entry): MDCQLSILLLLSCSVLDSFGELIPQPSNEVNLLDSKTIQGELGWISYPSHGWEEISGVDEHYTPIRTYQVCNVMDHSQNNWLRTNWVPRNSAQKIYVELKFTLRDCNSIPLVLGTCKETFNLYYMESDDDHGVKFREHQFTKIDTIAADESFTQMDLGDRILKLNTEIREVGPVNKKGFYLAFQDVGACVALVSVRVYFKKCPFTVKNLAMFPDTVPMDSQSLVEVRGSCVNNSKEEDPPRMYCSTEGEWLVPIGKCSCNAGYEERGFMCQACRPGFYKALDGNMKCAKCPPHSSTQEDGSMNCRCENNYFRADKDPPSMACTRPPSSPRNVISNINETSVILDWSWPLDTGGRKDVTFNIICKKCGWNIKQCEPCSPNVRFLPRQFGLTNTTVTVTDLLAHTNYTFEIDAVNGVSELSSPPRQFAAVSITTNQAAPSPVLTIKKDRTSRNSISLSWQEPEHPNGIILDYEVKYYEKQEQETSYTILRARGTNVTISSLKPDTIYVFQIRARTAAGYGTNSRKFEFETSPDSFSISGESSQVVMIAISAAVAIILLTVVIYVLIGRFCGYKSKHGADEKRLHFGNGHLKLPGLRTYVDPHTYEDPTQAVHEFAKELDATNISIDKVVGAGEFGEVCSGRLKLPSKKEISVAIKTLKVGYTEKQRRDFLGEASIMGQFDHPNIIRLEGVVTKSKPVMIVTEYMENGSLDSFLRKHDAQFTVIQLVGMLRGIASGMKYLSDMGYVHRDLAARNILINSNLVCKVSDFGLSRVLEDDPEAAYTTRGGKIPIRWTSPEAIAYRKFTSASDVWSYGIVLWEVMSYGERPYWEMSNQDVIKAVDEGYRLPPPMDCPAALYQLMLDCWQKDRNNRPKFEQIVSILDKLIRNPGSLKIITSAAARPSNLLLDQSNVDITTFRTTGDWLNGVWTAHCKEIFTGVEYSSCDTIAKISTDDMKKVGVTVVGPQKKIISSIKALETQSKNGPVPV

[4] = molecular target: T1, Receptor tyrosine-protein kinase erbB-4; experiment: Inhibition of recombinant human N-terminal GST-His6-fused erbB4 expressed in Sf9 insect cells using poly (Glu, Tyr) 4:1 as substrate after 60 mins in presence of [gamma-33P]-ATP by microplate scintillation counting method
[5] = molecular target: Receptor tyrosine-protein kinase erbB-2 (Homo sapiens, UniProt P04626); experiment: Inhibition of recombinant human N-terminal GST-His6-fused erbB2 expressed in Sf9 insect cells using poly (Glu, Tyr) 4:1 as substrate after 60 mins in presence of [gamma-33P]-ATP by microplate scintillation counting method
Sequence of Receptor tyrosine-protein kinase erbB-2 (P04626 whole entry, the tested form may be a part): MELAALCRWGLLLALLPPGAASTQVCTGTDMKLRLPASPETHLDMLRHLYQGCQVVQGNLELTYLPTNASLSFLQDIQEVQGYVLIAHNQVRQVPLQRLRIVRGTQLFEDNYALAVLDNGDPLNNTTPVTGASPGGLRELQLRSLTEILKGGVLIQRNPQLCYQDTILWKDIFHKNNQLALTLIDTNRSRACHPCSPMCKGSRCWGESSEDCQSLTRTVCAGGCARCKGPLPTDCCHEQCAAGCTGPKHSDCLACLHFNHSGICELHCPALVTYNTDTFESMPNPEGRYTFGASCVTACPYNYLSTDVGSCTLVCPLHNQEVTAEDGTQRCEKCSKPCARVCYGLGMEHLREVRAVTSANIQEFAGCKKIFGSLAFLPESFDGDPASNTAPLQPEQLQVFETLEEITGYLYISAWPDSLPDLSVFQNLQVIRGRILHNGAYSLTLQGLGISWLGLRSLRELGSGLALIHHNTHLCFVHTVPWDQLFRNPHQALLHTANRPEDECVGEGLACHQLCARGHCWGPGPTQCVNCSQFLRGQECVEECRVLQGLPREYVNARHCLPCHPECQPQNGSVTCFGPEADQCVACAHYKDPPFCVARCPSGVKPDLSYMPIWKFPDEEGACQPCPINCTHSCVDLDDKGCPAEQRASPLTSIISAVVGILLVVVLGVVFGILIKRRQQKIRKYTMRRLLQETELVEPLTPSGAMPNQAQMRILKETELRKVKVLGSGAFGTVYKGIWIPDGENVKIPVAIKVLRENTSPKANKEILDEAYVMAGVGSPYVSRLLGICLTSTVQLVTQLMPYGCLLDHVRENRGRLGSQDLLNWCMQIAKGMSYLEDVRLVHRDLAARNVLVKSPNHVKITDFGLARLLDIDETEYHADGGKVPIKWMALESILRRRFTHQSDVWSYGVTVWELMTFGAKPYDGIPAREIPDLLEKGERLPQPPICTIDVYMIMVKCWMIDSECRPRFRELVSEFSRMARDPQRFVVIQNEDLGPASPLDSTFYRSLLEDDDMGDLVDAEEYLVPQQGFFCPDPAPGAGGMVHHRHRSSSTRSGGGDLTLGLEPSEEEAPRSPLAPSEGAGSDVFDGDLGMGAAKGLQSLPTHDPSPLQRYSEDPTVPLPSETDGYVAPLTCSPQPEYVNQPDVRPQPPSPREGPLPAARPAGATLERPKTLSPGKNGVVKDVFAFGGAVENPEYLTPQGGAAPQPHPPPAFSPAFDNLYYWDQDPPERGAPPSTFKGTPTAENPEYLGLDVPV

MCF7 [6] = experiment: Cytotoxicity against human MCF7 cells after 24 hrs by MTT assay; type: functional, cell-based; conditions: MCF7, 24 h
MCF7 [7] = experiment: Cell cycle arrest in human MCF7 cells assessed as accumulation at G2/M phase at 1 uM after 24 hrs by propidium iodide staining-based flow cytometric method; type: functional
MCF7 [8] = experiment: Induction of cell death in human MCF7 cells assessed as appearance of sub-G0 hypodiploid nuclei at 1 uM after 24 hrs by propidium iodide staining-based flow cytometric method; type: functional

Structure (SMILES)	inhibition [1] [%]	inhibition [2] [%]	inhibition [3] [%]	IC50 [4] [µM]	IC50 [5] [µM]	IC50 (MCF7 [6]) [µM]	Activity (MCF7 [7])	Activity (MCF7 [8])
COC(=O)c1ccc(-c2cc(C(F)(F)F)cc(S(=O)(=O)NCCc3cccc(F)c3)c2)cn1	15.8							
O=S(=O)(NCCc1cccc(F)c1)c1cc(-c2ccc(-c3cccs3)s2)cc(C(F)(F)F)c1	57	40.3	22	8.05	31.5	9.09	Active	inactive
O=S(=O)(NCCc1cccc(F)c1)c1cc(-c2ccnc(F)c2)cc(C(F)(F)F)c1	18.4		9.1					
O=S(=O)(NCCc1cccc(F)c1)c1cc(-c2ccc(COc3cccc4ccccc34)cc2)cc(C(F)(F)F)c1	49	35.6	30.1					
O=S(=O)(NCCc1cccc(F)c1)c1cc(-c2ccccc2COc2cccc(C(F)(F)F)c2)cc(C(F)(F)F)c1	63.1	52.7	30.4	4.41	9.71	44.2		
COc1cc(-c2cc(C(F)(F)F)cc(S(=O)(=O)NCCc3cccc(F)c3)c2)ccc1F	12.8	27.6						
O=S(=O)(NCCc1cccc(F)c1)c1cc(-c2ccc(COc3cccc(C(F)(F)F)c3)cc2)cc(C(F)(F)F)c1	67.9	50.8	28.5	5.06	18	28.2		
O=S(=O)(NCCc1cccc(F)c1)c1cc(-c2ccc(F)nc2)cc(C(F)(F)F)c1	7.5	10.3						
COc1ncc(-c2cc(C(F)(F)F)cc(S(=O)(=O)NCCc3cccc(F)c3)c2)c(OC)n1	10.3							
Cc1noc(C)c1-c1cc(C(F)(F)F)cc(S(=O)(=O)NCCc2cccc(F)c2)c1	9							
COc1cc(-c2cc(C(F)(F)F)cc(S(=O)(=O)NCCc3cccc(F)c3)c2)c(OC)nn1	14.9							
O=S(=O)(NCCc1cccc(F)c1)c1cc(-c2cccnc2)cc(C(F)(F)F)c1	15.7		4.2					
O=S(=O)(NCCc1cccc(F)c1)c1cc(-c2cccc(S(=O)(=O)N3CCCC3)c2)cc(C(F)(F)F)c1	34.3	5.7						
O=S(=O)(NCCc1cccc(F)c1)c1cc(-c2cccc3c2Sc2ccccc2S3)cc(C(F)(F)F)c1	57.9	35	32.8	6.4	10.4	22.8		
O=S(=O)(NCCc1cccc(F)c1)c1cc(-c2cc3ccccc3[nH]2)cc(C(F)(F)F)c1	4.6	52.2	22.7					
O=Cc1ccc(-c2cc(C(F)(F)F)cc(S(=O)(=O)NCCc3cccc(F)c3)c2)s1	22.2	5.2	7.8					
O=S(=O)(NCCc1cccc(F)c1)c1cc(-c2cccc3c2oc2ccccc23)cc(C(F)(F)F)c1	50.5	2.4	11.1					
COCCc1ccc(OCc2ccc(-c3cc(C(F)(F)F)cc(S(=O)(=O)NCCc4cccc(F)c4)c3)cc2)cc1	67.7	42.8	33.1	6.43	25.4	45.1		
COc1ccc(F)cc1-c1cc(C(F)(F)F)cc(S(=O)(=O)NCCc2cccc(F)c2)c1	19.1	40.5						
